Test system: HPAF, a human pancreatic cancer cell line
Experiment: In vitro anticancer efficacy test on human pancreatic cancer cell line (CCK cell viability assay)
Format: cell-based
Details: for IC50: HPAF cells, 96 hours, CCK assay
Description: HPAF, a human pancreatic cancer cell line, was dispensed in a 96-well plate and incubated in a 37° C., 5% CO2 incubator for 24 hours. Thereafter, 10 μl of Examples and Comparative Examples were treated to each well at different concentrations (1 nM, 0.01 μM, 0.1 μM, 1 μM, 10 μM, 100 μM) and incubated for 96 hours. Each well was treated with a reagent using a CCK assay kit (Dong-In LS, D Plus CCK cell viability assay kit), and reacted in a 37° C., 5% CO2 incubator for 30 minutes to 1 hour, and then the absorbance was measured at a wavelength of 450 nm using a microplate reader (SpectraMax i3x, USA). The IC50 value was confirmed using the GraphPad Prism 5 (GraphPad Software, Inc., San Diego, USA) program from the results obtained at this time.

IC50 (Homo sapiens, Pancreatic cancer cell)	IC50 value for HPAF, times lower than Comparative Example 1 (versus JQ1)	SMILES	IC50
130 nM	about 17.69 times	CNC(=O)CCN(Cc1ccc(C(F)F)cc1)C(=O)c1cc2c(OC)ccc(-c3ccc(=O)n(C)c3)c2s1 [BBC1115, N-[[4-(difluoromethyl)phenyl]methyl]-4-methoxy-N-[3-(methylamino)-3-oxo-propyl]-7-(1-methyl-6-oxo-3-pyridyl)benzothiophene-2-carboxamide]	–
–	–	Cc1sc2c(c1C)C(c1ccc(Cl)cc1)=N[C@@H](CC(=O)OC(C)(C)C)c1nnc(C)n1-2 [JQ1, reference compound]	2300 nM

From patent US20250221977A1, “NOVEL BENZOTHIOPHENE DERIVATIVE AND USE THEREOF AS BET INHIBITOR” (BENOBIO CO., LTD., priority 2022, published 2025)
